# Test results as given in ChEMBL document CHEMBL5625177, “Recent advance of small-molecule drugs for clinical treatment of osteoporosis: A review” (Eur J Med Chem, 2023).
# System: Rattus norvegicus
# Test: Anti-hypertensive activity in fructose fed-induced hypertensive rat assessed as increase in ionized calcium level in serum at 20 mg/kg administered once daily for 28 days
# Format: functional
# Conditions: time 28 day
smiles,measurement,value
C=C1/C(=C\C=C2/CCC[C@]3(C)[C@@H]([C@H](C)CCCC(C)(C)O)CC[C@@H]23)C[C@@H](O)C[C@@H]1O [CALCITRIOL],Activity,1.44 mM
